Laboratory results published in PMC5011342, “A high throughput drug screening assay to identify compounds that promote oligodendrocyte differentiation using acutely dissociated and purified oligodendrocyte precursor cells” (BMC Research Notes, 2016).
Read-outs that look alike come from different tables or passages of the source.

What was measured:
[1] = test system: acutely dissociated and purified rat OPCs; experiment: Acute OL differentiation assay (MBP expression/cell, immunofluorescent image quantification); format: cell-based; settings: sheet "All OLga data"; for activation at 2 µM / activation at 10 µM / activation at 0.08 µM / activation at 0.4 µM: Rattus norvegicus
How it was run: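 This acute differentiation assay used purified rat OPCs from postnatal day 6–7 pups, seeded into PDL/laminin-coated 96-well plates in differentiation medium lacking PDGF and FGF. Compounds were applied in quadruplicate after a 1–2 h preincubation at 37 °C, 10 % CO2, with 0.1 % DMSO negative and 40 ng/ml T3 positive controls in eight wells. After fixation on DIV4, anti-MBP immunofluorescence images yielded MBP expression/cell.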

[2] = test system: expanded OPCs; experiment: cells; settings: for viability at 0.1 µM / viability at 1 µM / viability at 10 µM: Rattus norvegicus, 72 h
How it was run: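 Toxicity screen: compounds added at 0.1, 1 and 10 µM to PDGF-AA-expanded OPCs in 96-well plates, 3-day incubation at 37 °C, 10% CO2, then alamarBlue 1:10 for 4 h with fluorescence readout. Results set screening doses of 10/2, 2/0.4 or 0.4/0.08 µM.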

[3] = 2 uM test compound, relative to quetiapine, read-out: OL differentiation, 2 uM (% Quet)
[4] = 10 uM test compound, relative to quetiapine, read-out: OL differentiation, 10 uM (% Quet)
[5] = read-out: 0.1 µM (% DMSO), alamarBlue viability of expanded OPCs, compound at 0.1 µM, sheet All Tox data
[6] = read-out: 1 µM (% DMSO), alamarBlue viability of expanded OPCs, compound at 1 µM, sheet All Tox data
[7] = read-out: 10 µM (% DMSO), alamarBlue viability of expanded OPCs, compound at 10 µM, sheet All Tox data
[8] = read-out: 0.1 µM (% DMSO), alamarBlue viability, NCC library compound at 0.1 µM, sheet "All Tox data"
[9] = read-out: 1 µM (% DMSO), alamarBlue viability, NCC library compound at 1 µM, sheet "All Tox data"
[10] = read-out: 10 µM (% DMSO), alamarBlue viability, NCC library compound at 10 µM, sheet "All Tox data"
[11] = test compound at 0.08 uM, NCC library screen, relative to quetiapine, read-out: 0.08 uM (% Quet)
[12] = test compound at 0.4 uM, NCC library screen, relative to quetiapine, read-out: 0.4 uM (% Quet)
[13] = test compound at 2 uM, NCC library screen, relative to quetiapine, read-out: 2 uM (% Quet)
[14] = test compound at 10 uM, NCC library screen, relative to quetiapine, read-out: 10 uM (% Quet)
[15] = alamarBlue viability of expanded OPCs, compound at 0.1 µM, relative to DMSO control
[16] = alamarBlue viability of expanded OPCs, compound at 1 µM, relative to DMSO control
[17] = alamarBlue viability of expanded OPCs, compound at 10 µM, relative to DMSO control
[18] = 0.4 uM test compound, relative to quetiapine, read-out: OL differentiation, 0.4 uM (% Quet)
[19] = test compound at 2 uM, NCC library screen, relative to quetiapine
[20] = alamarBlue viability, NCC library compound at 0.1 µM, sheet "All Tox data"
[21] = alamarBlue viability, NCC library compound at 1 µM, sheet "All Tox data"
[22] = alamarBlue viability, NCC library compound at 10 µM, sheet "All Tox data"

| Structure (SMILES) | activation at 2 µM [1, 3] [%] | activation at 10 µM [1, 4] [%] | viability at 0.1 µM [2, 5] [%] | viability at 1 µM [2, 6] [%] | viability at 10 µM [2, 7] [%] | viability at 0.1 µM [2, 8] [%] | viability at 1 µM [2, 9] [%] | viability at 10 µM [2, 10] [%] | activation at 2 µM [1, 13] [%] | further results |
| --- | --- | --- | --- | --- | --- | --- | --- | --- | --- | --- |
| CC(C)Oc1ccc2c(=O)c(-c3ccccc3)coc2c1 [Ipriflavone] | 22.5 | 32 | 87.3 | 92.1 | 117 | – | – | – | – | – |
| CCCCC1=NC2(CCCC2)C(=O)N1Cc1ccc(-c2ccccc2-c2nnn[nH]2)cc1 [Irbesartan] | 0.6 | -16.7 | – | – | – | 88.9 | 92.8 | 89.7 | – | – |
| CCc1c2c(nc3ccc(OC(=O)N4CCC(N5CCCCC5)CC4)cc13)-c1cc3c(c(=O)n1C2)COC(=O)[C@]3(O)CC [Irinotecan] | – | – | – | – | – | 82.8 | 49.7 | 27.9 | – | activation at 0.08 µM [1, 11]: -38.4%; activation at 0.4 µM [1, 12]: -140% |
| Nc1nc(N)nc(-c2cc(Cl)ccc2Cl)n1 [Irsogladine] | 20.6 | 6.1 | 92.2 | 92.7 | 94.8 | – | – | – | – | – |
| NNC(=O)c1ccncc1 [Isoniazid] | – | – | – | – | – | – | – | – | -8.7 | activation at 10 µM [1, 14]: 3.1%; 0.1 µM (% DMSO) [2, 15]: 98.2 % DMSO; 1 µM (% DMSO) [2, 16]: 98.4 % DMSO; 10 µM (% DMSO) [2, 17]: 66.3 % DMSO |
| CC(C)NCC(O)c1ccc(O)c(O)c1 (centres unmarked) [Isoproterenol] | – | – | – | – | – | – | – | – | -19.5 | activation at 10 µM [1, 14]: -148%; 0.1 µM (% DMSO) [2, 15]: 95.1 % DMSO; 1 µM (% DMSO) [2, 16]: 94.6 % DMSO; 10 µM (% DMSO) [2, 17]: 67.7 % DMSO |
| O=c1c(O[C@@H]2O[C@H](CO)[C@@H](O)[C@H](O)[C@H]2O)c(-c2ccc(O)c(O)c2)oc2cc(O)cc(O)c12 [Isoquercitrin] | 12.9 | 8.7 | 85.5 | 92.9 | 101 | – | – | – | – | – |
| CC1=C(/C=C/C(C)=C/C=C/C(C)=C\C(=O)O)C(C)(C)CCC1 [Isotretinoin] | – | – | – | – | – | – | – | – | – | activation at 2 µM ([1]; test compound at 2 uM, MBP expression relative to quetiapine, NCC library screen, read-out: 2 uM (% Quet)): -19.2%; activation at 10 µM ([1]; test compound at 10 uM, MBP expression relative to quetiapine, NCC library screen, read-out: 10 uM (% Quet)): -6.2%; 0.1 µM (% DMSO) [2, 15]: 104.5 % DMSO; 1 µM (% DMSO) [2, 16]: 112.6 % DMSO; 10 µM (% DMSO) [2, 17]: 136.3 % DMSO |
| CC(COc1ccccc1)NC(C)C(O)c1ccc(O)cc1 (centres unmarked) [Isoxsuprine] | – | – | – | – | – | – | – | – | 13.2 | activation at 10 µM [1, 14]: 2.2%; 0.1 µM (% DMSO) [2, 15]: 97.2 % DMSO; 1 µM (% DMSO) [2, 16]: 91.9 % DMSO; 10 µM (% DMSO) [2, 17]: 60.9 % DMSO |
| COC(=O)C1=C(C)NC(C)=C(C(=O)OC(C)C)C1c1cccc2nonc12 (centres unmarked) [Isradipine] | -6.1 | – | – | – | – | 89.4 | 80.5 | 45.6 | – | activation at 0.4 µM [1, 18]: -7.2% |
| O=C(O)C[C@H](O)C[C@H](O)/C=C/c1c(C2CC2)nc2ccccc2c1-c1ccc(F)cc1 [Itavastain] | – | – | – | – | – | – | – | – | – | 0.4 uM (% Quet) ([1]; test compound at 0.4 uM, NCC library screen, relative to quetiapine): -60.9 % Quet; 2 uM (% Quet) [1, 19]: -74.4 % Quet; 0.1 µM (% DMSO) [2, 20]: 114.3 % DMSO; 1 µM (% DMSO) [2, 21]: 70.7 % DMSO; 10 µM (% DMSO) [2, 22]: 19.8 % DMSO |
| COc1ccc(C(=O)NCc2ccc(OCCN(C)C)cc2)cc1OC [Itopride] | -2.3 | 2 | – | – | – | 112 | 97.5 | 87.1 | – | – |
| CCC(C)n1ncn(-c2ccc(N3CCN(c4ccc(OCC5COC(Cn6cncn6)(c6ccc(Cl)cc6Cl)O5)cc4)CC3)cc2)c1=O (centres unmarked) [Itraconazole] | – | – | 86.1 | 29.2 | 26.2 | – | – | – | – | activation at 0.08 µM ([1]; 0.08 uM test compound, relative to quetiapine, read-out: OL differentiation, 0.08 uM (% Quet)): 2.8%; activation at 0.4 µM [1, 18]: -174% |
| CN(CCO)CC(O)Cn1cnc2c1c(=O)n(C)c(=O)n2C (centres unmarked) [Jupal] | – | – | – | – | – | – | – | – | – | 2 uM (% Quet) [1, 19]: 0.8 % Quet; 10 uM (% Quet) ([1]; test compound at 10 uM, NCC library screen, relative to quetiapine): 6.5 % Quet; 0.1 µM (% DMSO) [2, 20]: 92.2 % DMSO; 1 µM (% DMSO) [2, 21]: 91.0 % DMSO; 10 µM (% DMSO) [2, 22]: 92.4 % DMSO |
| CC(=O)N1CCN(c2ccc(OCC3COC(Cn4ccnc4)(c4ccc(Cl)cc4Cl)O3)cc2)CC1 (centres unmarked) [Ketoconazole] | 16.5 | -67.7 | 98.1 | 126 | 109 | – | – | – | – | – |
| CC(C(=O)O)c1cccc(C(=O)c2ccccc2)c1 (centres unmarked) [Ketoprofen] | – | – | – | – | – | – | – | – | 0.75 | activation at 10 µM [1, 14]: -29.2%; 0.1 µM (% DMSO) [2, 15]: 90.4 % DMSO; 1 µM (% DMSO) [2, 16]: 89.7 % DMSO; 10 µM (% DMSO) [2, 17]: 95.0 % DMSO |
| O=C(c1ccccc1)c1ccc2n1CCC2C(=O)O (centres unmarked) [Ketorolac] | – | – | – | – | – | 97.7 | 102 | 103 | 16.3 | activation at 10 µM [1, 14]: -1.3% |
| CN1CCC(=C2c3ccccc3CC(=O)c3sccc32)CC1 [Ketotifen] | – | – | – | – | – | 85.1 | 72.7 | 36.9 | 0.04 | activation at 0.4 µM [1, 12]: -11.2% |
| [H]/N=C(/NC)NCCC[C@H](N)C(=O)O [L-NMMA] | 3 | 7.7 | 84.1 | 92.4 | 93 | – | – | – | – | – |
| CCCc1c(OCCCCc2nnn[nH]2)ccc(C(C)=O)c1O [LY 171883] | -33.3 | -5.4 | 79.7 | 81.3 | 86.1 | – | – | – | – | – |
| CC(CCc1ccccc1)NCC(O)c1ccc(O)c(C(N)=O)c1 (centres unmarked) [Labetalol] | – | – | – | – | – | 92.7 | 79.2 | 47.3 | -15.3 | activation at 0.4 µM [1, 12]: -5.2% |
| CCOC(=O)C1=C(C)NC(C)=C(C(=O)OCC)C1c1ccccc1/C=C/C(=O)OC(C)(C)C [Lacidipine] | – | – | – | – | – | 64.4 | 55.3 | 8.7 | – | activation at 0.08 µM [1, 11]: -1.1%; activation at 0.4 µM [1, 12]: -11.2% |
